Measurements taken from EP1255553B1 (Stegram Pharmaceuticals Limited, priority 2000, dated 2001).
Entries after “also recorded” stand apart in the source; their conditions may differ. Read-outs that look alike come from different tables or passages of the source.

Legend:
[1] = cited from earlier work
[2] = test system: oestrogen response element driven GFP gene in MCF-7 breast cancer cell line; test: Oestrogen reporter plasmid xTG (GFP) transcriptional activity in MCF-7 cells; format: cell-based; settings: compound at 10^-6M plus E2 at 10^-8M; MCF-7 transiently transfected with xTG for three days
Excerpt: XTG consists of a oestrogen response element. Upstream of a simple TATA promoter which together drive transcription of the GFP gene from the jellyfish Aequorea victoria. The xERE sequence is made up of the following - GGTCA CAG TGACC […] (SEQUENCE ID NO: 1)
The GFP gene - from GFPuv was supplied by Clontech (Clontech Laboratories, Inc., 1020 East Meadow Circle, Palo Alto, CA 94303-4230, USA)
E2 was used at a concentration of 10^-8M while all other compounds were used at 10^-6M. All ligands were added to cell media during transfection.

[3] = test system: rat uterine oestrogen receptors; test: Scatchard analysis of tritiated oestradiol binding, rat uterus; settings: Figure 2, Trilostane at 10micromolar
Method: (§1) Using tissue, snap frozen at time of excision, cytosols were prepared by dismembration using a Braun II Mikrodismembrator. Frozen tissue was minced and pulverised. The resultant powder was resuspended in 1-mm phosphate buffer containing 10% (v/v) glycerol, 1.5mm EDTA, 10mM monothioglycerol, 20mM Sodium molybdate, aprotinin (1ug/ml) and STI (1ug/ml) and phenyl methyl sulfonyl fluoride (30ug/ml) at pH 7.4 by stirring for 15 minutes at 4°C. This suspension was centrifuged at 100,000g for 1 hour at 4°C and the supernantant was used for competition analysis.
(§2) After overnight incubation at 4°C assay tubes were incubated with DCC as above to remove free steroid and aliquots of the resultant supernatant were incubated with toluene based scintillant and counted on a Scintillation Counter. Data obtained was analysed according to the method of Scatchard.

[4] = test system: oestrogen receptor isoforms in rat uterus; test: Tritiated tamoxifen binding to oestrogen receptor isoforms (IEF); settings: Figure 5, test compound 10 micromolar, tritiated tamoxifen 10^-6M
Method: as §1
After overnight incubation free steroid was separated from bound by incubating with dextran coated charcoal (0.25% w/v charcoal, 0.025% w/v Dextran T70 in 10mM Tris 1.5mM EDTA at pH 7.4) for 10 mins at 4°C. The DCC was pelleted by centrifugation (10,000g for 10 mins) and aliquots of the supernatant were used for IEF separation.
Isoelectric focusing (IEF) gels were cast in slabs of size 125 x 260 mm and separation was conducted along either the short side (short run) or the long side (long run) of the gel. […]
After DCC extraction, aliquots (270ul) of the radioactive supernatant (3 mg protein/ml) derived from SSD assay were loaded near the cathode. […] After the run the gels were cut into 2.5 mm slices and each slice was incubated with 5ml scintillation cocktail for 24h at room temperature and radioactivity assayed.

[5] = advanced breast cancer, cited from earlier work
MCF-7 cells = test: Thymidine labeling of MCF-7 cells; format: cell-based
Method: MCF-7 cells were plated out in multiwell dishes and grown for 24 hours in serum free medium (MEM). […] Radiolabelled thymidine was added to each well ([…]) and cells were then cultured for a further 24 hours. At the end of this period the medium was aspirated and the cultured cells were rinsed 3-times with cold buffer solution(50mm Tris-HCl, pH 7.4). The cells were then dissolved in 1ml of 0.1N NaOH and 0.5ml of this solution was mixed with 2.5ml of Scintillation cocktail and the intracellular radioactivity of ^3H was measured with a liquid scintillation counter.

[6] = test system: oestrogen receptor isoforms; test: Isoelectric focusing (IEF) of 3H oestradiol binding to oestrogen receptor isoforms in tissue cytosol; set-up: species or system rat; settings: Trilostane 10 micromolar, 3H oestradiol 5nM
[7] = test system: rat prostate oestrogen receptors; test: Scatchard analysis of tritiated oestradiol binding, rat prostate; set-up: dose or concentration left out as unconfirmed; settings: Figure 3
Method: as §1, §2

[8] = molecular target: oestrogen receptor present in MCF-7 breast cancer cell extracts / oestrogen response element (Homo sapiens, UniProt P03372); test: Electrophoretic mobility shift assay (EMSA) of ER-ERE complex formation in extracts of treated MCF-7 cells; format: cell-based; settings: MCF7, 24 h, read-out: ER-ERE complex formation
oestrogen receptor present in MCF-7 breast cancer cell extracts / oestrogen response element, sequence (P03372 whole entry): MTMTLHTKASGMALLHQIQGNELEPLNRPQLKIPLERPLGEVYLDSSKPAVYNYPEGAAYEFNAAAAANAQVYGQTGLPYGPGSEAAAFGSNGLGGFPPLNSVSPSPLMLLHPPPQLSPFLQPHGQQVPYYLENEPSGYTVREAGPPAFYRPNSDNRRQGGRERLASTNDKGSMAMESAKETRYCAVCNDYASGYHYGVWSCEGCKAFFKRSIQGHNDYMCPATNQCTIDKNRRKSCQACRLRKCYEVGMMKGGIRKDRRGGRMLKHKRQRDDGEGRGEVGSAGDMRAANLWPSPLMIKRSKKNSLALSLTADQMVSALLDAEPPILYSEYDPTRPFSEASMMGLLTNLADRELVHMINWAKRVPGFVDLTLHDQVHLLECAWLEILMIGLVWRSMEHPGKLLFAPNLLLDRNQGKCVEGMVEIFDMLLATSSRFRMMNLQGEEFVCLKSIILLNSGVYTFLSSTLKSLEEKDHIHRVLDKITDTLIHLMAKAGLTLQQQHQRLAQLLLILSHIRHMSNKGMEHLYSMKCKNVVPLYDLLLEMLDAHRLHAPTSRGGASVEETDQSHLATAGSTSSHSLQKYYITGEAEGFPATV

CC/C(=C(\c1ccccc1)c1ccc(OCCN(C)C)cc1)c1ccccc1 [tamoxifen]
reduction of the risk of invasive breast cancer ([1]; all women, two-sided P<.00001): 49%
occurrence of oestrogen receptor-negative tumors ([1]; in vivo): no difference
reduction of the occurrence of oestrogen receptor-positive tumors ([1]; in vivo): 69%
cumulative incidence of invasive breast cancer ([1]; through 69 months of follow-up, tamoxifen group): 22.0 per 1000 women
reduction of the risk of noninvasive breast cancer ([1]; two-sided P<.002): 50%
decreased risk of invasive breast cancer ([1]; women aged 49 years or younger): 44%
decreased risk of invasive breast cancer ([1]; women aged 50-59 years): 51%
decreased risk of invasive breast cancer ([1]; women aged 60 years or older): 55%
decreased risk of invasive breast cancer ([1]; women with a history of atypical breast hyperplasia): 86%
decreased risk of invasive breast cancer ([1]; women with a history of breast lobular carcinoma in situ): 56%
E2-driven transactivation / transcription of GFP [2]: reduced E2-driven transactivation

C[C@]12CC[C@H]3[C@@H](CC[C@@]45O[C@@H]4C(O)=C(C#N)C[C@]35C)[C@@H]1CC[C@@H]2O [Trilostane, (4α,5α-17β)-4,5-epoxy-3,17-dihydroxyandrost-2-ene-2carbonitrile]
concentration of total receptor (X axis intercept of Scatchard plot) [3]: increases the apparent affinity of oestrogen binding (given by the slope of the regression lines) and the concentration of total receptor
tritiated tamoxifen binding to oestrogen receptor isoforms [4]: increased tritiated tamoxifen binding to oestrogen receptor isoforms
response rate ([5]; Ingle J.N. et al 1990): 38%
response rate ([5]; Williams C.J. et al 1993): 29%
blocking of the oestradiol-induced increase in thymidine labeling (MCF-7 cells; E2+T: Oestradiol 10^-8 M and Trilostane 10µM, 24 hours): completely blocked
inhibition at 10 µM (MCF-7 cells; Homo sapiens, MCF7, 24 h, read-out: inhibition of thymidine uptake of MCF-7 cells compared with control): 31%
binding of oestrogen onto the oestrogen receptor isoforms [6]: modulated the binding of oestrogen onto all the oestrogen receptor isoforms but principally onto the pI 6.3 isoform
E2-driven transactivation / transcription of GFP [2]: reduced transcription of GFP
concentration of total receptor (x axis intercept of Scatchard plot) [7]: increases the concentration of total receptor; also recorded: an increase in receptor concentration

C[C@]12CC[C@H]3[C@@H](CC[C@@]45O[C@@H]4C(=O)[C@H](C#N)C[C@]35C)[C@@H]1CCC2=O [keto-trilostane]
tritiated tamoxifen binding to oestrogen receptor isoforms [4]: increased tritiated tamoxifen binding to oestrogen receptor isoforms
activity at 10 µM [8]: 68%

C[C@]12CC[C@@H]3c4ccc(O)cc4CC[C@H]3[C@@H]1CC[C@@H]2O [oestradiol]
activation at 0.01 µM (MCF-7 cells; Homo sapiens, MCF7, 24 h, read-out: increase in thymidine labeling compared to control): 15%

O=C(c1ccc(OCCN2CCCCC2)cc1)c1c(-c2ccc(O)cc2)sc2cc(O)ccc12 [raloxifene]
E2-driven transactivation / transcription of GFP [2]: reduced E2-driven transactivation
